In patent US9260461B2, “Water-soluble derivatives and prodrugs of acacetin and methods of making and using thereof” (Versitech Limited, priority 2014, dated 2016):
Read-outs that look alike come from different tables or passages of the source.

Legend:
[1] = Solubility of the purified prodrugs versus parent compound acacetin; type: physicochemical
Description: Prodrug B: Light yellow solid. Yield 54%. C16H11O7PNa2 (408.21). EI-MS: m/z 387.04 [M+H—Na]^+. ^1H NMR (400 MHz, DMSO-d6): δ=12.90 (s, 1H), 8.04 (d, J=8.8 Hz, 2H), 7.10 (d, J=8.8 Hz, 2H), 7.02 (s, 1H), 6.98 (s, 1H), 6.60 (s, 1H), 3.89 (s, 3H) ppm.

isolated rat hearts = test: Ischemia-reperfusion model in isolated rat hearts (Langendorff): coronary flow rate and contractile function; set-up: species or system SD rats; conditions: for coronary flow rate versus control: n=10-12
Procedure: Male SD rats (250-300 g) were anesthetized with phenobarbital (30 mg/kg, i.p.), and the heart were isolated and mounted to a Langendorff heart perfusion apparatus via the aorta and perfused with Krebs-Henseleit solution at 37° C. gassed with 95% O2 and 5% CO2. A saline-filled latex balloon connected by a polyethylene catheter to a pressure transducer was inserted into the left ventricle via an incision on the left atrium to measure left ventricular (LV) pressure. The balloon volume was adjusted and kept at a diastolic pressure of 0-5 mm Hg following insertion. ECG was recorded with two electrodes placed at the apex and the aorta. Signals were continuously monitored and stored on an IBM compatible PC computer using a multiple channels data acquisition system (Chengdu Instrument Ltd, Chendu, China).
A silk suture was placed around the left anterior descending artery (LAD) 2 mm distal to the left atrial appendage. A short length of polyethylene tube was placed over the suture on LAD as an occluder and the suture was pulled and the tube to ligate the coronary artery to induce regional ischemia. After a 20-min stabilization period, the hearts were treated by vehicle (DMSO control) or 0.3, 1, or 3 μM of the parent compound acacetin (0.3, 1, or 3 μM) for 10 min, and the LAD was ligated for 30-min. The ligation was released to allow for reperfusion for 2 h. Myocardial ischemia was confirmed by a decrease in left ventricular developed pressure and specific ST-T elevation on the ECG. At completing the reperfusion, the hearts were used to perform histological and/or molecular/biochemical analysis.
Hearts were excluded from the study if one of the following criteria was observed: (1) left ventricular developed pressure (LVP) was below 80 mmHg during baseline stabilization; (2) aortic wall was damaged during cannulation leading to a leakage during perfusion; or (3) hearts suffered from sustained irreversible arrhythmia during stabilization.
To determine the mechanisms of cardioprotection, the ischemia-reperfusion model was established in isolated rat hearts using accurate concentrations of the parent compound acacetin. The hearts perfused with the Langendorff system were exposed to 30 min ischemia (coronary ligation) followed by 120 min reperfusion (FIG. 5). After a 20 min stabilization period, the heart was treated with 0.3, 1, 3 μM acacetin, or equivolume vehicle (DMSO) for 10 min and then 30 min during ischemia.

myocyte apoptosis = test: TUNEL staining of myocardial slices; set-up: species or system rat; conditions: 3 μM; vehicle 51.1±3.8%; n=5, P<0.01 vs. vehicle
Procedure: To observe the histological changes of the ischemia-reperfusion hearts, the left ventricle was sectioned into 2-3 mm slices and drop-fixed in 10% formalin solution. After adequate fixation (a minimum 48 hours in room temperature), tissue slices were transferred into 70% ethanol for long term storage at 4° C. Tissue paraffin infiltration is processed in the tissue processor (Leica, Asp200s).
When the program was complete, tissue slices with cut side down were transferred into a mold with paraffin to form a block. The tissue block was placed on a microtome (Leica, RM2125/RT, Germany) and cut into ˜5 μm slices. The tissue slices were float on the surface of 37° C. water bath until flat and then collected onto clean glass slides. […]
Terminal deoxynucleotidyl transferase-mediated dUTP nick end labeling (TUNEL) staining of myocardial slices was performed to detect apoptosis in myocardium using the TUNEL Apoptosis detection kit (Genscript, Cat. No L00297, Piscataway, N.J., USA) according to the manufacturer's instructions. […] For quantitative analysis, TUNEL-positive cells in 10 different sectors with approximately 100-200 cells/sector were counted with high-power magnification, Axioskop 2 plus with software Axioversion (Axiovs 20v.4.8.2.0). Apoptotic cells were expressed as percentage of total cells in the field.

[2] = background statement; cited from earlier work

Question: Which results are given for `COc1ccc(-c2cc(=O)c3c(O)cc(O)cc3o2)cc1` [acacetin]?
Answer: solubility ([1]; aqueous buffer, comparison with Tris solution pH=7.0, read-out: solubility (parent compound, compared with Prodrug A in Tris solution)): < 0.2 µg/mL; solubility ([1]; water, H2O, read-out: solubility (parent compound, compared with Prodrug B in H2O)): < 0.1 µg/mL; coronary flow rate versus control (isolated rat hearts; 0.3 μM, before ischemia): 108.9±2.3%; coronary flow rate versus control (isolated rat hearts; 1 μM, before ischemia): 122.1±4.9%; increase of heart contractile function (left ventricular systolic pressure and +dP/dT) (isolated rat hearts; 3 μM, before ischemia, n=10, P<0.01): around 10 % of control; coronary flow rate versus control (isolated rat hearts; 3 μM, before ischemia): 125.8±6.6%; improvement of reduced coronary flow rate, difference vs. vehicle (isolated rat hearts; 3 μM, during ischemia and reperfusion, P<0.01 vs. vehicle): 16-25%; prevention of decrease of heart contractile function induced by ischemia-reperfusion, difference vs. vehicle (isolated rat hearts; 3 μM, P<0.01 vs. vehicle): 15-20%; TUNEL-positive nuclei (percentage cell number) (myocyte apoptosis): 20.2±4.1%; water solubility [2]: water-insoluble
